One compound from patent publication US20240100176A1, “HUMAN INTERLEUKIN-4 RECEPTOR ALPHA ANTIBODY GLUCOCORTICOID CONJUGATES” (Eli Lilly and Company, priority 2022, published 2024) can be followed below.

Holding throughout (assay type): cell-based
The test system of experiment [1] is IL-5 secretion from Human PBMCs. Kind of experiment: Inhibition of cytokine secretion from human PBMCs. As to conditions: PBMC; PHA-M/PMA stimulated human PBMCs, 48 hours; 100 nM. As for the experimental part:
(§1) Example 4h. Inhibition of Cytokine secretion from Human PBMCs: PBMCs were isolated from Ficoll-layered blood centrifuged at 400×g for 30 minutes at room temperature. The PBMC layer was washed with sterile RPMI-1640 media (Corning® Cat. #10041CV) and centrifuged at 1500 rpm for 5 min, at 4° C. Red blood cells are lysed by resuspending the cell pellet in 5 mL of ACK Lysing Buffer (GIBCO Cat. #A1049201) and incubating at room temperature for 5 minutes. […] The plates are incubated at 37° C. with 5% CO2 for 48 hours. After the incubation period, plates are centrifuged at 2000 rpm for 1 min and the top 100 μL of the supernatants are removed and stored at −80° C., until ready to perform cytokine detection. Cytokine release is detected using the U-PLEX Custom Biomarker [Human] Multiplex Assay (MESO SCALE DISCOVERY), according to the manufacturer's protocol. Statistical analysis is performed using GraphPad Prism 9. Data was presented as sigmoidal curve fits of the mean of the individual donors' percent inhibition for each cytokine (n=2) vs. the log(Ab concentration) and statistical analysis is performed using GraphPad Prism 9.

Experiment [2] has as its system MDC secretion from Human PBMCs. Kind of experiment: Inhibition of cytokine secretion from human PBMCs. To be noted: PBMC; PHA-M/PMA stimulated human PBMCs, 48 hours; 100 nM. As for the experimental part: as §1
The test system of experiment [3] is GM-CSF secretion from Human PBMCs. Briefly: Inhibition of cytokine secretion from human PBMCs. As to conditions: PBMC; PHA-M/PMA stimulated human PBMCs, 48 hours; 100 nM. As to the method:
as §1

For experiment [4], the system named is anti-CD40 induced proliferation of human primary B cells. Kind of experiment: Glucocorticoid receptor mediated inhibition of anti-CD40 induced B cell proliferation. As to the method:
Human PBMCs were isolated from human blood samples by standard Ficoll-Paque™ plus (GE […]) density gradient centrifugation methods, and primary B cells were isolated from the PBMC suspension by negative selection with EasySep™ Human Naïve B cell Enrichment kit according to the manufacturer's protocol ([…]™ Technologies). […] Cells were then pulsed with [^3H]-thymidine ([…] thymidine/well; PerkinElmer®) for 18 hours at 37° C. and level of [^3H]-thymidine incorporation was measured by a Microplate Counter (MicroBeta 2; PerkinElmer®) and expressed as a […] (CCPM). Statistical analysis was performed using GraphPad Prism 9 and curves were generated by fitting a sigmoidal curve of the log(Ab concentration) vs. the mean percent inhibition of CCPM compared to no stimulation from 2 donors.

For experiment [5], the system named is IL-4 induced proliferation of human primary B cells. Briefly: Inhibition of IL-4 induced B cell proliferation. As to the method:
Human PBMCs were isolated from human blood samples by standard Ficoll-Paque™ plus (GE […]) density gradient centrifugation methods, and primary B cells were isolated from the PBMC suspension by negative selection with EasySep™ Human Naïve B cell Enrichment kit according to the manufacturer's protocol ([…]™ Technologies). […] Cells were stimulated with Human CD40/TNFRSF5 Antibody (200 ng/mL; R&D SYSTEMS) and with IL-4 recombinant human protein (5 ng/mL; R&D SYSTEMS) for 2 days at 37° C. and 5% CO2. Cells were then pulsed with [^3H]-thymidine ([…] thymidine/well; PerkinElmer®) for 18 hours at 37° C. and level of [^3H]-thymidine incorporation was measured by a Microplate Counter (MicroBeta 2; PerkinElmer®) and expressed as a […] (CCPM). Statistical analysis was performed using GraphPad Prism 9 and curves were generated by fitting a sigmoidal curve of the log (Ab concentration) vs. the mean percent inhibition of CCPM compared to CD40 stimulation alone from two donors.

In general, IC50 refers to the midpoint of a concentration-inhibition curve. The low end stands for greater potency in that assay, the high end for weaker potency in that assay. Turning to `Cc1ccc(OCc2cccc(N)c2)c(F)c1[C@H]1O[C@@H]2C[C@H]3[C@@H]4CCC5=CC(=O)C=C[C@]5(C)[C@H]4[C@@H](O)C[C@]3(C)[C@]2(C(=O)CO)O1` (single isomer, unassigned) [GC1], the inhibition at 0.1 µM was found to be 97.4% in experiment [1]; 96.1% in experiment [2]; 90.8% in experiment [3]; 66.5% in experiment [4] (read-out: Inhibition of B cell proliferation at 100 nM % inhibition, anti-CD40 induced, 100 nM). For the same compound, the IC50 in experiment [4] (anti-CD40 (200 ng/mL) induced, no IL-4) amounted to 3.73 nM. In experiment [5] (Homo sapiens, B-cell, IL-4 induced, 66.67 nM), this compound came in with an inhibition at 0.06667 µM of 25.7%. Moreover, the “Inhibition of IL-4 induced B cell proliferation (in words)” value in experiment [5] (compared to the isotype control) is “no significant inhibition was observed”.
